Like-named read-outs stand apart in the source and are kept apart here.
Tests used:
[1] = Pharmacokinetics after peroral administration of test compounds; format: in vivo, rat; details: for in vivo PK, rat p.o. F / in vivo PK, rat p.o. AUCnorm: male Wistar rats; for in vivo PK, rat p.o. F: bioavailability; for in vivo PK, rat p.o. AUCnorm: dose and body weight-normalized AUC; for Fraction absorbed fabs, calc: rat p.o., fabs,calc=[F/Fmax,calc]*100
Method: Pharmacokinetics after Peroral Administration of Test Compounds: Male Wistar rats (Harlan Laboratories) are anesthetized and a catheter is inserted into the jugular vein of the rat. The next day, a defined dose of the test compound is administered perorally. Blood samples are collected through the jugular catheter during the next 24 h (8-11 time points). Blood is centrifuged in heparin-tubes, and each plasma sample is treated with acetonitrile for protein precipitation. After centrifugation, the test compound in the supernatant is quantified using an LC-MS/MS method. The determined plasma concentrations are used for the determination of pharmacokinetic parameters, such as AUC (area under the plasma concentration vs. time curve), Cmax (highest test compound concentration observed in plasma following administration), t1/2 (half-life) and F (bioavailability). The fraction of the dose absorbed (fabs,calc) is calculated by the equation fabs,calc=[F/Fmax,calc]*100, wherein F is the determined bioavailability after peroral administration and Fmax,calc is the theoretically maximum achievable bioavailability considering the determined blood clearance and assuming that the test compound is completely absorbed.

[2] = Caco-2 permeability assay; format: in vitro ADME; details: human, apical to basolateral, 2 h at 37° C.
Excerpt: Caco-2 Permeability Assay:
The in vitro permeation of a test compound across a Caco-2 cell monolayer is a well-established assay system to predict the permeability from the gastro-intestinal tract [cf. P. Artursson and J. Karlsson: Correlation between oral drug absorption in humans and apparent drug permeability coefficients in human intestinal epithelial (Caco-2) cells, Biochem. Biophys. 175 (3), 880-885 (1991)]. The permeability of the compounds of the present invention in such Caco-2 cells was determined as described below:
Human caco-2 cells (ACC No. 169, DSMZ, German Collection of Microorganisms and Cell Cultures, Braunschweig, Germany) are seeded on 24-well insert plates and are allowed to grow for 14-16 days. For permeability studies, the test compounds are dissolved in DMSO and diluted to the final test concentration of 2 μM with transport buffer [Hanks' Buffered Salt Solution, Gibco/Invitrogen, further supplemented with glucose (final concentration 19.9 mM) and HEPES (final concentration 9.8 mM)]. For determination of the apical to basolateral permeability (PappA-B), the test compound solution is added to the apical side of the cell monolayer and transport buffer to the basolateral side of the monolayer; for determination of the basolateral to apical permeability (PappB-A), the test compound solution is added to the basolateral side of the cell monolayer and transport buffer to the apical side of the monolayer. Samples are taken from the donor compartment at the beginning of the experiment to confirm mass balance. After an incubation of 2 h at 37° C., samples are taken from both compartments. Samples are analyzed by LC-MS/MS, and the apparent permeability coefficients are calculated. Lucifer Yellow permeability is assayed for each cell monolayer to ensure cell monolayer integrity, and the permeability of Atenolol (low permeability marker) and Sulfasalazine (marker for active excretion) is determined for each batch as quality control.

[3] = Pharmacokinetics after intravenous administration of test compounds; format: in vivo, rat; details: for in vivo PK, rat i.v. CLblood: male Wistar rats, total blood clearance; for in vivo PK, rat i.v. Fmax, calc: Fmax,calc=[1−CLblood/Qh]*100, Qh 4.2 L per h per kg
Method: Pharmacokinetics after Intravenous Administration of Test Compounds: Male Wistar rats (Harlan Laboratories) are anesthetized and a catheter is inserted into the jugular vein of the rat. The next day, a defined dose of the test compound is administered as solution by injection into the tail vein. Blood samples are collected through the jugular catheter during the next 24 h (8-11 time points). Blood is centrifuged in heparin-tubes, and each plasma sample is treated with acetonitrile for protein precipitation. After centrifugation, the test compound in the supernatant is quantified using an LC-MS/MS method. The determined plasma concentrations are used for the calculation of pharmacokinetic parameters, such as AUC (area under the plasma concentration vs. time curve), Vss (volume of distribution under steady-state conditions), Cmax (highest test compound concentration observed in plasma following administration), t1/2 (half-life) and CL (total clearance of the test compound from the plasma). For the calculation of the blood clearance, the blood to plasma partitioning is determined by incubation of the test compound in blood of rats. After separation of the plasma by centrifugation, the concentration in the plasma is determined by an LC-MS/MS method. Under the assumption that the test compound is completely absorbed, the theoretically maximum achievable bioavailability Fmax,calc is calculated by the equation Fmax,calc=[1−CLblood/Qh]*100, wherein CLblood is the total blood clearance and Qh is the hepatic blood flow in rat of 4.2 L per h per kg.

[4] = biological target: Recombinant human c-Met protein (Homo sapiens (Human), UniProt P08581); assay: c-Met receptor tyrosine kinase activity assay (NADH read-out); format: biochemical; details: ATP 30 μM, c-Met 30 nM
Sequence of Recombinant human c-Met protein (P08581 25-1390): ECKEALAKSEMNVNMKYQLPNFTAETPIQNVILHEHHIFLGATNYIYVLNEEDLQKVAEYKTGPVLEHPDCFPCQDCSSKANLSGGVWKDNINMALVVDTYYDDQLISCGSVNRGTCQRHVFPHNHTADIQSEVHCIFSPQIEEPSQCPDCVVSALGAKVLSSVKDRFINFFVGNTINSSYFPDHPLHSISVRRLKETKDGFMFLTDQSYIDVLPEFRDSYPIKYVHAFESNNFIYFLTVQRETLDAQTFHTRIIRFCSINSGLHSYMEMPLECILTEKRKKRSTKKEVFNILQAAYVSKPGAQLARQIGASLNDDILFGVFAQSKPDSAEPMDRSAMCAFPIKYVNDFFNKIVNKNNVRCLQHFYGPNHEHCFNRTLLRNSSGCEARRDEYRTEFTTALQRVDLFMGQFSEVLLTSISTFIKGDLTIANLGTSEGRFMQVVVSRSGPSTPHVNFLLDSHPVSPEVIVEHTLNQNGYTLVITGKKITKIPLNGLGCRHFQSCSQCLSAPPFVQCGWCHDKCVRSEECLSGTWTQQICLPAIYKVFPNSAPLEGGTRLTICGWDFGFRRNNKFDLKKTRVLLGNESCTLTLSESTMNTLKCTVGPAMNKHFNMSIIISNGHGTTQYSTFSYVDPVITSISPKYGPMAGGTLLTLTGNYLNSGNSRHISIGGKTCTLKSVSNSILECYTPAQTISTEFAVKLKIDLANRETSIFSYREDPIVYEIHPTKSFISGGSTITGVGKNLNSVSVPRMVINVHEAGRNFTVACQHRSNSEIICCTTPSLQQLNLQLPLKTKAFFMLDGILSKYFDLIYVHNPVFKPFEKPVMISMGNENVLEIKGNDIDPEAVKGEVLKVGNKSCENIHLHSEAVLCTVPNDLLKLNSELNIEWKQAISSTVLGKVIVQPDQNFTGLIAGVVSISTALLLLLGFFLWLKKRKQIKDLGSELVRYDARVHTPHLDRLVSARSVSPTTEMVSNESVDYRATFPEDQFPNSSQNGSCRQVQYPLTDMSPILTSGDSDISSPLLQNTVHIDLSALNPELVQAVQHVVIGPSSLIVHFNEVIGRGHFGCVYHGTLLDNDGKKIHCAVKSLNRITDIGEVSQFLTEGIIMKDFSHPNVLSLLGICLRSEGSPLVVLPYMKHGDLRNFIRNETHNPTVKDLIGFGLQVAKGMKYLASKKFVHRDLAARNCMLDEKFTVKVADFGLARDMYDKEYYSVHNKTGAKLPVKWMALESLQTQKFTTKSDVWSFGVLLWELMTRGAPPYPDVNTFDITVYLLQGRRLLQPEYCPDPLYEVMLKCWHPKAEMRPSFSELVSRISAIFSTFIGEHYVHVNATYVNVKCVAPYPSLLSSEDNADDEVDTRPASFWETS
Method: c-Met Receptor Tyrosine Kinase Activity Assay (NADH Read-Out):
Recombinant human c-Met protein (Invitrogen, Carlsbad, Calif., USA) is used. As substrate for the kinase reaction the peptide KKKSPGEYVNIEFG (JPT, Germany) is used. For the assay, 1 μL of a 51-fold concentrated solution of the test compound in DMSO is pipetted into a white 384-well microtiter plate (Greiner Bio-One, Frickenhausen, Germany). 25 μL of a solution of c-Met (final concentration 30 nM) and pyruvate kinase/lactate dehydrogenase (Roche Diagnostics, Mannheim, Germany; final concentration 8 mg/L) in assay buffer [3-(N-morpholino)propanesulfonic acid (MOPS), 50 mM, pH 7; MgCl2, 10 mM; bovine serum albumin (BSA), 0.01%; Triton X 100, 0.01%; DTT, 2 mM] are added, and the mixture is incubated for 5 min at room temperature. Then, the kinase reaction is started by the addition of 25 μL of a solution of adenosine triphosphate (ATP, final concentration 30 μM), substrate (final concentration 100 μM), nicotinamide adenine dinucleo-tide (NADH, final concentration 50 μM) and dithiothreitol (DTT, final concentration 2 mM) in assay buffer, and the resulting mixture is incubated for a reaction time of 100 min at 32° C.
Subsequently, the amount of phosphorylated substrate is evaluated by measurement of the decrease of NADH fluorescence. Therefore, the fluorescence emissions at 465 nm after excitation at 340 nm is measured in a fluorescence reader, e.g. Tecan Ultra (Tecan, Männedorf, Switzerland). The data are normalised (enzyme reaction without inhibitor=0% inhibition; all other assay components but no enzyme=100% inhibition).

[5] = Table 3, read-out: Caco-2 permeability PappA-B
[6] = Table 4, read-out: Caco-2 permeability PappA-B

Row | Compound | in vivo PK, rat p.o. F [1] [%] | in vivo PK, rat p.o. AUCnorm [1] [kg·h/L] | Fraction absorbed fabs, calc [1] [%] | Papp at 2 h, 2 μM [2, 5] [×10⁻⁶ cm/s] | in vivo PK, rat i.v. CLblood [3] [mL/min/kg] | in vivo PK, rat i.v. Fmax, calc [3] [%] | IC50 [4] [nM] | Papp at 2 h, 2 μM [2, 6] [×10⁻⁶ cm/s]
1 | CC1=C(C#N)C(c2cc3cn[nH]c3cc2F)C(C#N)=C(C(F)(F)F)N1 (racemic) [Example 19, rac-4-(6-Fluoro-1H-indazol-5-yl)-2-methyl-6-(trifluoromethyl)-1,4-dihydropyridine-3,5-dicarbonitrile] | 40 | 0.33 | 84 | 17.6 | 36.5 | 48 |  | 
2 | CC1=C(C#N)C(c2cc3cn[nH]c3cc2F)C(C#N)=C(C(F)F)N1 (single isomer, unassigned) [Example 17, 2-(Difluoromethyl)-4-(6-fluoro-1H-indazol-5-yl)-6-methyl-1,4-dihydropyridine-3,5-dicarbonitrile] |  |  |  |  |  |  | 11 | 
3 | Cc1n[nH]c2ccc(C3C(C#N)=C(C(F)F)NC(C(F)F)=C3C#N)cc12 [Example 13, 2,6-Bis(difluoromethyl)-4-(3-methyl-1H-indazol-5-yl)-1,4-dihydropyridine-3,5-dicarbonitrile] | 70 | 6.16 | 73 | 39.3 | 2.83 | 96 |  | 
4 | CC1=C(C#N)C(c2ccc3[nH]nc(C)c3c2)C(C#N)=C(C(F)(F)F)N1C (racemic) [Example 42, rac-1,2-Dimethyl-4-(3-methyl-1H-indazol-5-yl)-6-(trifluoromethyl)-1,4-dihydropyridine-3,5-dicarbonitrile] |  |  |  |  |  |  |  | 38.8
5 | N#CC1=C(C(F)F)NC(C(F)F)=C(C#N)C1c1ccc2[nH]ncc2c1 [Example 24, 2,6-Bis(difluoromethyl)-4-(1H-indazol-5-yl)-1,4-dihydropyridine-3,5-dicarbonitrile] |  |  |  |  |  |  | 28 | 20.2
6 | CCc1n[nH]c2ccc(C3C(C#N)=C(C(F)F)NC(C(F)F)=C3C#N)cc12 [Example 25, 2,6-Bis(difluoromethyl)-4-(3-ethyl-1H-indazol-5-yl)-1,4-dihydropyridine-3,5-dicarbonitrile] |  |  |  |  |  |  |  | 29
7 | CC1=C(C#N)C(c2ccc3[nH]ncc3c2)C(C#N)=C(C(F)(F)F)N1 (racemic) [Example 20, rac-4-(1H-Indazol-5-yl)-2-methyl-6-(trifluoromethyl)-1,4-dihydropyridine-3,5-dicarbonitrile] |  |  |  |  |  |  | 27 | 20
8 | CC1=C(C#N)C(c2cc3c(C)n[nH]c3cc2F)C(C#N)=C(C(F)(F)F)N1 (single isomer, unassigned) [Example 12, 4-(6-Fluoro-3-methyl-1H-indazol-5-yl)-2-methyl-6-(trifluoromethyl)-1,4-dihydropyridine-3,5-dicarbonitrile] | 48 | 1.1 | 59 | 18.7 | 13.2 | 81 |  | 
9 | CC1=C(C#N)C(c2ccc3[nH]nc(C)c3c2)C(C#N)=C(C(F)(F)F)N1C (single isomer, unassigned) [Example 43, 1,2-Dimethyl-4-(3-methyl-1H-indazol-5-yl)-6-(trifluoromethyl)-1,4-dihydropyridine-3,5-dicarbonitrile] |  |  |  |  |  |  | 9 | 
10 | CC1=C(C#N)C(c2ccc3[nH]nc(C)c3c2)C(C#N)=C(C(F)(F)F)N1C (single isomer, unassigned) [Example 44, 1,2-Dimethyl-4-(3-methyl-1H-indazol-5-yl)-6-(trifluoromethyl)-1,4-dihydropyridine-3,5-dicarbonitrile] |  |  |  |  |  |  | 8 | 
11 | CC1=C(C#N)C(c2cc3c(C)n[nH]c3cc2F)C(C#N)=C(C(F)F)N1 (racemic) [Example 7, rac-2-(Difluoromethyl)-4-(6-fluoro-3-methyl-1H-indazol-5-yl)-6-methyl-1,4-dihydropyridine-3,5-dicarbonitrile] | 68 | 0.69 | 109 | 22 | 26.7 | 62 |  | 
12 | CC1=C(C#N)C(c2ccc3[nH]nc(C)c3c2)C(C#N)=C(C(F)(F)F)N1 (single isomer, unassigned) [Example 5] |  |  |  |  |  |  | 12 | 
13 | N#CC1=C(C(F)F)NC(C(F)F)=C(C#N)C1c1cc2cn[nH]c2cc1F [Example 15, 2,6-Bis(difluoromethyl)-4-(6-fluoro-1H-indazol-5-yl)-1,4-dihydropyridine-3,5-dicarbonitrile] | 63 | 3.87 | 66 | 16.9 | 3.83 | 95 |  | 
14 | CC1=C(C#N)C(c2cc3c(C)n[nH]c3cc2F)C(C#N)=C(C(F)F)N1 (single isomer, unassigned) [Example 8, 2-(Difluoromethyl)-4-(6-fluoro-3-methyl-1H-indazol-5-yl)-6-methyl-1,4-dihydropyridine-3,5-dicarbonitrile] |  |  |  |  |  |  | 9 | 
15 | Cc1n[nH]c2ccc(C3C(C#N)=C(C(F)(F)F)NC(C(F)(F)F)=C3C#N)cc12 [Example 26, 4-(3-Methyl-1H-indazol-5-yl)-2,6-bis(trifluoromethyl)-1,4-dihydropyridine-3,5-dicarbonitrile] |  |  |  |  |  |  |  | 34.8
16 | CC1=C(C#N)C(c2cc3cn[nH]c3cc2F)C(C#N)=C(C(F)F)N1 (racemic) [Example 16, rac-2-(Difluoromethyl)-4-(6-fluoro-1H-indazol-5-yl)-6-methyl-1,4-dihydropyridine-3,5-dicarbonitrile] |  |  |  |  |  |  |  | 22.6

Source: patent US9422263B2, “Fluoro-substituted 3,5-dicyano-4-(1H-indazol-5-yl)-2,6-dimethyl-1,4-dihydropyridine derivatives and methods of use thereof” (BAYER PHARMA AKTIENGESELLSCHAFT, priority 2009, dated 2016)
